Results on nine compounds are retold here after patent US10251395B2, “Substituted furano-/thienocycloalkylamino-2-pyrimidine derivatives and use thereof for controlling undesired plant growth” (Bayer CropScience Aktiengesellschaft, priority 2015, dated 2019).

A short description of series [1]: logP (HCOOH). The conditions noted are these: for chromatographic logP: HCOOH (formic acid). In kind it is physicochemical. From the text:
Table 2 (physicochemical characterization of selected synthesis examples)

Series [2] concerns Alopecurus myosuroides. Briefly: Pre-emergence herbicidal effect. The conditions noted are these: Dosage 320 g/ha, scored visually after 3 weeks. In kind it is in vivo. The method, boiled down: (§1)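 Seeds sown in sandy loam and covered with soil; WP or EC formulations sprayed onto the soil surface as aqueous suspension/emulsion at 600 to 800 L/ha water with 0.2% wetting agent. Greenhouse-grown; damage scored visually after 3 weeks against untreated controls (100% = plants dead, 0% = like control).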

Series [3] concerns Amaranthus retroflexus. Nature of the series: Pre-emergence herbicidal effect. It counts as in vivo. The conditions noted are these: scored visually after 3 weeks. An outline of the steps: as §1
The subject of series [4] is Echinochloa crus-galli. Nature of the series: Pre-emergence herbicidal effect. It counts as in vivo. The conditions noted are these: scored visually after 3 weeks. An outline of the steps:
as §1

Series [5] deals with Lolium multiflorum. Nature of the series: Pre-emergence herbicidal effect. The conditions noted are these: Dosage 320 g/ha, scored visually after 3 weeks. It counts as in vivo. An outline of the steps:
as §1

The subject of series [6] is Matricaria inodora. Briefly: Pre-emergence herbicidal effect. It counts as in vivo. The settings on record: scored visually after 3 weeks. An outline of the steps:
as §1

Series [7] has as its system Polygonum convolvulus. Nature of the series: Pre-emergence herbicidal effect. In kind it is in vivo. The settings on record: scored visually after 3 weeks. An outline of the steps:
as §1

For series [8], the system named is Setaria viridis. Nature of the series: Pre-emergence herbicidal effect. In kind it is in vivo. The conditions noted are these: scored visually after 3 weeks. An outline of the steps:
as §1

Series [9] concerns Stellaria media. Nature of the series: Pre-emergence herbicidal effect. It counts as in vivo. The conditions noted are these: scored visually after 3 weeks. An outline of the steps: as §1
Series [10] relates to Veronica persica. Nature of the series: Pre-emergence herbicidal effect. It counts as in vivo. The conditions noted are these: scored visually after 3 weeks. An outline of the steps:
as §1

Series [11] has as its system Viola tricolor. Briefly: Pre-emergence herbicidal effect. It counts as in vivo. The conditions noted are these: scored visually after 3 weeks. The method, boiled down: as §1
Series [12] has as its system Abutilon theophrasti. Nature of the series: Post-emergence herbicidal effect. It counts as in vivo. The conditions noted are these: assessed visually after about 3 weeks vs untreated controls. The method, boiled down:
(§2)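 Percent herbicidal action was judged by eye roughly 3 weeks post-application, 0% matching control plants and 100% meaning plant death. Seedlings, greenhouse-grown in sandy loam, received the spray at one leaf.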

Series [13] has as its system Amaranthus retroflexus. Nature of the series: Post-emergence herbicidal effect. The settings on record: assessed visually after about 3 weeks vs untreated controls. In kind it is in vivo. An outline of the steps: as §2
The subject of series [14] is Polygonum convolvulus. Nature of the series: Post-emergence herbicidal effect. In kind it is in vivo. The conditions noted are these: 320 g/ha, assessed visually after about 3 weeks vs untreated controls. An outline of the steps: as §2
Series [15] relates to Stellaria media. Briefly: Post-emergence herbicidal effect. It counts as in vivo. The conditions noted are these: 320 g/ha, assessed visually after about 3 weeks vs untreated controls. An outline of the steps:
as §2

For series [16], the system named is Viola tricolor. Briefly: Post-emergence herbicidal effect. The settings on record: assessed visually after about 3 weeks vs untreated controls. In kind it is in vivo. An outline of the steps: as §2
Series [17] deals with Abutilon theophrasti. Nature of the series: Pre-emergence herbicidal effect. In kind it is in vivo. The conditions noted are these: Dosage 320 g/ha, scored visually after 3 weeks. The method, boiled down:
as §1

Series [18] concerns Echinochloa crus-galli. Nature of the series: Post-emergence herbicidal effect. It counts as in vivo. The settings on record: 320 g/ha, assessed visually after about 3 weeks vs untreated controls. The method, boiled down:
as §2

Series [19] deals with Ipomoea purpurea. Briefly: Post-emergence herbicidal effect. It counts as in vivo. The conditions noted are these: assessed visually after about 3 weeks vs untreated controls. The method, boiled down: as §2
Series [20] relates to Matricaria inodora. Nature of the series: Post-emergence herbicidal effect. The settings on record: assessed visually after about 3 weeks vs untreated controls. In kind it is in vivo. An outline of the steps: as §2
Series [21] concerns Setaria viridis. Briefly: Post-emergence herbicidal effect. In kind it is in vivo. The settings on record: 320 g/ha, assessed visually after about 3 weeks vs untreated controls. The method, boiled down:
as §2

The subject of series [22] is Veronica persica. Briefly: Post-emergence herbicidal effect. In kind it is in vivo. The conditions noted are these: 320 g/ha, assessed visually after about 3 weeks vs untreated controls. The method, boiled down:
as §2

For the compound `Cc1cc2c(s1)CCCC2Nc1ncc(S(=O)(=O)C(C)(C)C)c(N)n1` (racemic) [compound 76], the “logP (HCOOH)” value in [1] was “solid; logP (HCOOH): 3.01; 1H NMR (CDCl3, 400 MHZ, δ in ppm): ): 1.40 (s, 9H,”.
Same read-out and setting: in the case of `Cc1cc2c(s1)CCC2Nc1ncc(S(=O)(=O)C(C)(C)C)c(N)n1` (racemic) [compound 77] it was “solid; logP (HCOOH): 2.67; 1H NMR (CDCl3, 400 MHZ, δ in ppm): 1.40 (s, 9H, 3*3H”; in that of `COc1nc(NC2CCCc3sc(C)cc32)ncc1F` (racemic) [compound 224], “solid; logP (HCOOH): 3.12; 1H NMR (CDCl3, 400 MHZ, δ in ppm): 1.90 (m, 3H, 3H”.
On to `CO/N=C(/C)c1cnc(NC2CCCc3sccc32)nc1N` (racemic) [compound 292], for which the “ALOMY pre-emergence efficacy (herbicidal activity)” value in series [2] worked out at 100%. Moreover, the “AMARE pre-emergence efficacy (herbicidal activity)” value in series [3] (Dosage 320 g/ha) is reported as 100%. Besides, in series [4] (Dosage 320 g/ha), the “ECHCG pre-emergence efficacy (herbicidal activity)” value is given as 100%. For the same compound, the “LOLMU pre-emergence efficacy (herbicidal activity)” value in series [5] is given as 70%. For the same compound, the “MATIN pre-emergence efficacy (herbicidal activity)” value in series [6] (Dosage 80 g/ha) is 80%; in [6] (Dosage 320 g/ha), 100%. In addition, the “POLCO pre-emergence efficacy (herbicidal activity)” value in series [7] (Dosage 80 g/ha) is 70%. In addition, the “SETVI pre-emergence efficacy (herbicidal activity)” value in [8] (Dosage 320 g/ha) was 100%. For the same compound, the “STEME pre-emergence efficacy (herbicidal activity)” value in series [9] (Dosage 80 g/ha) and in series [9] (Dosage 320 g/ha) was 100% each time. In addition, the “VERPE pre-emergence efficacy (herbicidal activity)” value in series [10] (Dosage 80 g/ha) and in [10] (Dosage 320 g/ha) was 100% throughout. Further, the “VIOTR pre-emergence efficacy (herbicidal activity)” value in series [11] (Dosage 80 g/ha) and in series [11] (Dosage 320 g/ha) was 100% throughout. The “post-emergence efficacy ABUTH” value in series [12] (320 g/ha) is reported as 80%. In series [13] (320 g/ha), the “post-emergence efficacy AMARE” value was 80%. Moreover, the “post-emergence efficacy POLCO” value in series [14] amounted to 30%. Moreover, the “post-emergence efficacy STEME” value in [15] was 90%. The “post-emergence efficacy VIOTR” value in series [16] (320 g/ha) is listed as 80%.
As for `CC(=NO)c1cnc(NC2CCCc3sc(C)cc32)nc1N` (racemic) [compound 341], in series [17], the “ABUTH pre-emergence efficacy (herbicidal activity)” value worked out at 70%. The “ALOMY pre-emergence efficacy (herbicidal activity)” value in series [2] stood at 70%. Further, the “AMARE pre-emergence efficacy (herbicidal activity)” value in series [3] (Dosage 80 g/ha) and in [3] (Dosage 320 g/ha) was 100% throughout. The results for the “ECHCG pre-emergence efficacy (herbicidal activity)” value in series [4] (Dosage 80 g/ha) and in series [4] (Dosage 320 g/ha) were 60% and 100%, respectively. Also, the “MATIN pre-emergence efficacy (herbicidal activity)” value in [6] (Dosage 80 g/ha) and in [6] (Dosage 320 g/ha) was 100% each time. The “POLCO pre-emergence efficacy (herbicidal activity)” value in series [7] (Dosage 80 g/ha) is on record as 70%; in [7] (Dosage 320 g/ha) it was 100%. The “SETVI pre-emergence efficacy (herbicidal activity)” value in series [8] (Dosage 80 g/ha) was determined as 90%; in series [8] (Dosage 320 g/ha), 100%. Further, the “STEME pre-emergence efficacy (herbicidal activity)” value in series [9] (Dosage 80 g/ha) and in series [9] (Dosage 320 g/ha) was 100% in each case. For the same compound, the “VERPE pre-emergence efficacy (herbicidal activity)” value in series [10] (Dosage 80 g/ha) and in series [10] (Dosage 320 g/ha) was 100% in each case. For the same compound, the “VIOTR pre-emergence efficacy (herbicidal activity)” value in series [11] (Dosage 80 g/ha) and in series [11] (Dosage 320 g/ha) was 100% in each case. Also, the “post-emergence efficacy ABUTH” value in series [12] (80 g/ha) turned out to be 80%; in series [12] (320 g/ha), 90%. The “post-emergence efficacy AMARE” value in series [13] (80 g/ha) came to 80%; in [13] (320 g/ha) it was 90%. Moreover, the “post-emergence efficacy ECHCG” value in series [18] is reported as 70%. Further, the “post-emergence efficacy PHBPU” value turned out to be 80% in [19] (80 g/ha) and 90% in [19] (320 g/ha). For the same compound, the “post-emergence efficacy MATIN” value in [20] (80 g/ha) is recorded as 60%; in series [20] (320 g/ha), 90%. Moreover, the “post-emergence efficacy SETVI” value in series [21] is recorded as 60%. Further, in series [15], the “post-emergence efficacy STEME” value was 60%. Besides, the “post-emergence efficacy VERPE” value in [22] turned out to be 100%. In addition, the “post-emergence efficacy VIOTR” value in [16] (80 g/ha) and in series [16] (320 g/ha) was 90% each time.
For `CCCS(=O)(=O)c1cnc(NC2CCCc3sccc32)nc1N` (stereo not shown) [compound 37, 5-Propylsulfonyl-N2-(4,5,6,7-tetrahydrobenzothiophen-4-yl)pyrimidine-2,4-diamine], the chromatographic logP (usually lipophilicity estimated from chromatographic retention) in series [1] worked out at 2.33.
On the same count and under the same terms, in the case of `Cc1cc2c(o1)CC(C)(C)CC2Nc1ncc([N+](=O)[O-])c(N)n1` (stereo not shown) [compound 40, 5-Nitro-N2-(2,6,6-trimethyl-4,5,6,7-tetrahydro-1-benzofuran-4-yl)pyrimidine-2,4-diamine] it was 3.2.
In the case of `CC(=O)c1cnc(N[C@@H]2CCCc3sccc32)nc1C` [compound 71], the “logP (HCOOH)” value in series [1] is “solid; logP (HCOOH): 2.98; 1H NMR (CDCl3, 400 MHZ, δ in ppm): ): 1.85 (m, 3H,”.
Same read-out and setting: as for `Cc1nc(N[C@@H]2CCCc3sccc32)ncc1F` [compound 223], the entry is “solid; logP (HCOOH): 2.57; 1H NMR (CDCl3, 400 MHZ, δ in ppm): 1.90 (m, 3H, 3H”.
